According to patent US7531646B2, “β-D-ribosidase activity indicators with a chromogenic substrate” (priority 2001, dated 2009):
Like-named read-outs stand apart in the source and are kept apart here.

Legend:
K. pneumoniae [1] = experiment: Evaluation of galactoside substrates with metal salts forming chelates; settings: IPTG 30 mg/l; for Colour of colonies: K. pneumoniae
L. monocytogenes = experiment: Evaluation of benzophenone glucoside on agar (Table 6); settings: ferric ammonium nitrate at 500 mg/l
Gram positive organisms = experiment: Evaluation of benzophenone glucoside on agar, screen; assay type: cell-based
Text: (§1) This was achieved using a densitometer.
(§2) The background agar was beige.

E. coli [2] = experiment: Evaluation of benzophenone glucoside on agar (Table 6); assay type: cell-based; set-up: growth: key to the marks not given beside the values; settings: ferric ammonium nitrate at 500 mg/l
Text: as §1, §2

S. aureus = experiment: as above; assay type: cell-based; set-up: growth: key to the marks not given beside the values; settings: ferric ammonium nitrate at 500 mg/l
Text: as §1, §2

S. sonnei = experiment: as above; assay type: cell-based; set-up: growth: key to the marks not given beside the values; settings: ferric ammonium nitrate at 500 mg/l
Text: as §1, §2

E. faecalis = experiment: as above; settings: ferric ammonium nitrate at 500 mg/l
K. pneumoniae [3] = experiment: as above; set-up: growth: key to the marks not given beside the values; settings: ferric ammonium nitrate at 500 mg/l
Y. enterocolitica = experiment: Evaluation of methoxyflavone riboside with metal salts; assay type: cell-based; settings: aluminium salt-containing medium; mixed culture with E. coli
Text: as §1
(§3) The substrate shown in the heading was synthesised from the same flavone starting material as Example 11 by a method analogous to that of Example 2. […] The species tested was E. coli. […] When the aluminium salt-containing medium was used with a mixed culture of E. coli and Yersinia entermcolitica, the E. coli colonies were bright yellow and stood out very clearly.

E. coli [4] = experiment: as above; assay type: cell-based
Text: as §1, §3

All species tested = experiment: Evaluation of phosphate substrate on agar, all species tested; assay type: cell-based
Yersinia enterocolitica = assay type: cell-based; settings: Yersinia enterocolitica NCTC 11197
Clostridium perfringens = assay type: cell-based; settings: Clostridium perfringens NCTC 8181; incubated anaerobically
Escherichia coli = experiment: Evaluation of phosphate substrate on agar (Table 3); assay type: cell-based; settings: Escherichia coli NCTC 10418
Staphylococcus aureus = experiment: as above; assay type: cell-based; settings: Staphylococcus aureus NCTC 6571
Acinetobacter lwoffii = experiment: as above; assay type: cell-based; settings: Acinetobacter lwoffii ATCC 15309
Enterococcus faecalis = experiment: as above; assay type: cell-based; settings: Enterococcus faecalis NCTC 775
bacterial enzymes = settings: cited from earlier work

3′,4′-Dihydroxyflavone-4′-β-galactopyranoside sodium salt
Colour of colonies (K. pneumoniae [1]; Metal Al, salt 500 mg/l): Yellow
Colour of colonies (K. pneumoniae [1]; Metal Ba, salt 500 mg/l): Pale yellow
Colour of colonies (K. pneumoniae [1]; Metal Bi, salt 500 mg/l): Rusty orange
Colour of colonies (K. pneumoniae [1]; Metal Co, salt 500 mg/l): (inhibits; no growth)
Colour of colonies (K. pneumoniae [1]; Metal Cu, salt 500 mg/l): Orange/brown
Colour of colonies (K. pneumoniae [1]; Metal Fe, salt 500 mg/l): Dark brown or black
Colour of colonies (K. pneumoniae [1]; Metal Mn, salt 500 mg/l): Pale orange
Colour of colonies (K. pneumoniae [1]; Metal Sn, salt 500 mg/l): Pale yellow
Colour of colonies (K. pneumoniae [1]; Metal Sr, salt 500 mg/l): Yellow
Colour of colonies (K. pneumoniae [1]; Metal Zn, salt 500 mg/l): (inhibits; no growth)
Colour of colonies (K. pneumoniae [1]; No metal): Diffuse pale yellow

COc1c(C(=O)c2ccccc2)ccc(O[C@@H]2O[C@H](CO)[C@@H](O)[C@H](O)[C@H]2O)c1O [3,4-dihydroxy-2-methoxybenzophenone-4-β-D-glucopyranoside]
colony colour (L. monocytogenes): pale black
effect on growth (Gram positive organisms): growth inhibiting
colony colour (E. coli [2]): cream
growth (E. coli [2]): ++
colony colour (S. aureus): cream
growth (S. aureus): ++
colony colour (S. sonnei): cream
growth (S. sonnei): ++
colony colour (E. faecalis): cream
colony colour (K. pneumoniae [3]): red/brown
growth (K. pneumoniae [3]): ++

COc1c(-c2ccc(O[C@@H]3O[C@H](CO)[C@H](O)[C@H](O)[C@H]3O)c(O)c2)oc2ccccc2c1=O [3′,4′-dihydroxy-3-methoxyflavone-4′-β-D-galactopyranoside]
Colour of K. pneumoniae colonies (K. pneumoniae [1]; Metal Al, salt 500 mg/l): Yellow
Colour of K. pneumoniae colonies (K. pneumoniae [1]; Metal Ba, salt 500 mg/l): Yellow
Colour of K. pneumoniae colonies (K. pneumoniae [1]; Metal Bi, salt 500 mg/l): Rusty orange
Colour of K. pneumoniae colonies (K. pneumoniae [1]; Metal Co, salt 500 mg/l): No growth
Colour of K. pneumoniae colonies (K. pneumoniae [1]; Metal Fe, salt 500 mg/l): Brown
Colour of K. pneumoniae colonies (K. pneumoniae [1]; Metal Mn, salt 500 mg/l): Pale orange
Colour of K. pneumoniae colonies (K. pneumoniae [1]; Metal Sn, salt 500 mg/l): Yellow
Colour of K. pneumoniae colonies (K. pneumoniae [1]; Metal Sr, salt 500 mg/l): Yellow
Colour of K. pneumoniae colonies (K. pneumoniae [1]; Metal Zn, salt 500 mg/l): No growth
Colour of K. pneumoniae colonies (K. pneumoniae [1]; No metal): Diffuse yellow

COc1c(-c2ccc(O[C@@H]3O[C@H](CO)[C@@H](O)[C@H]3O)c(O)c2)oc2ccccc2c1=O [3′,4′-dihydroxy-3-methoxyflavone-4′-β-D-ribofuranoside]
colour of Y. enterocolitica colonies (Y. enterocolitica): colourless
colour of precipitates (E. coli [4]; E. coli, in the presence of metal salts): coloured almost identically to the corresponding products referred to in Table 4
colour of E. coli colonies (E. coli [4]; aluminium salt-containing medium, mixed culture of E. coli and Yersinia): bright yellow

COc1c(-c2ccc(OP(=O)(O)O)c(O)c2)oc2ccccc2c1=O [Example 11]
growth on this medium (All species tested): grew well
Interpretation (Yersinia enterocolitica): Negative
colony appearance (Yersinia enterocolitica): colourless
Interpretation (Clostridium perfringens): Positive
colony appearance (Clostridium perfringens): dark green
Interpretation (Escherichia coli): Positive
colony appearance (Escherichia coli): pale green
Interpretation (Staphylococcus aureus): Positive
colony appearance (Staphylococcus aureus): dark green
Interpretation (Acinetobacter lwoffii): Negative
colony appearance (Acinetobacter lwoffii): colourless
Interpretation (Enterococcus faecalis): Positive
colony appearance (Enterococcus faecalis): small dark green/black

O=C1c2ccccc2C(=O)c2c1ccc(O[C@@H]1O[C@H](CO)[C@H](O)[C@H](O)[C@H]1O)c2O [alizarin β-D-galactopyranoside, alizarin β-D- galactopyranoside]
Colour of colonies (bacterial enzymes; in the presence of aluminium salts): bright-red
Colour of colonies (bacterial enzymes; in the presence of iron salts): bright-violet
